From patent US12037344B2, “NLRP3 modulators” (INNATE TUMOR IMMUNITY, INC., priority 2018, dated 2024) come the findings set out here.

The test system of one test is THP-1 cells. Description: Measurement of IL-1β production, hTRF protocol (second alternative procedure), THP-1 cells. Type of test: cell-based, human. The settings on record: Homo sapiens, THP-1, IL-1β production, read-out: NLRP3 hILIB EC50. The procedure: Measurement of IL-1β Production—hTRF Protocol (Second Alternative Procedure)
Serial dilutions of compounds in DMSO were added to low volume 384 well plates at 100 nl/well using an ECHO 550 acoustic dispenser (Labcyte) to achieve final starting concentration of 10 μM in assay.
THP-1 cells in RPMI (Gibco, 11875) media with 10% FBS at a density of 1×10^6 cell/ml in a T175 flask were treated with a final concentration of phorbol 12-myristate 13-acetate (PMA) (Sigma, P1585) of 50 ng/ml overnight at 37° C. at 5% CO2 for differentiation. Cells were harvested the next day after rinsing well with dPBS using 0.5% trypsin. A cell solution was prepared of 1×10^6 cells/ml for 50,000 cells in 50 μl/well in RPMI media with 2% FBS. Cells were plated using a multichannel pipette onto the compound dilutions in Greiner, 384 well, black clear bottom tissue culture treated plates (781090). The plates were incubated in 37° C. incubator at 5% CO2 for 2 hours.
After the 2 hour incubation, the cell plates were spun in the centrifuge for 5 minutes at 1200 rpm. Using the Felix (CyBio), 8 μl of the supernatant was transferred to 384 well, low volume, white proxy plates. (Perkin Elmer, 6008230). A human IL1beta hTRF kit was used to analyze the supernatant (CISBIO, 62HIL1BPEG). The kit instructions were followed for preparing the IL1Beta standard curve and then the antibodies from the kit were diluted 1:40 rather than 1:20 as kit instructed. Once combined, the antibodies were added across the plates, 5 μl/well. The plates were sealed and incubated at 4° C. overnight. The plates were then read on the Perkin Elmer EnVision at 665/615 nm using the hTRF laser.

For the next test, the target named is T1, TLR7 (Homo sapiens, UniProt Q9NYK1).
T1 construct: human HEK-Blue cells co-expressing a TLR7 or TLR8 gene
T1 sequence (Q9NYK1 27-1049): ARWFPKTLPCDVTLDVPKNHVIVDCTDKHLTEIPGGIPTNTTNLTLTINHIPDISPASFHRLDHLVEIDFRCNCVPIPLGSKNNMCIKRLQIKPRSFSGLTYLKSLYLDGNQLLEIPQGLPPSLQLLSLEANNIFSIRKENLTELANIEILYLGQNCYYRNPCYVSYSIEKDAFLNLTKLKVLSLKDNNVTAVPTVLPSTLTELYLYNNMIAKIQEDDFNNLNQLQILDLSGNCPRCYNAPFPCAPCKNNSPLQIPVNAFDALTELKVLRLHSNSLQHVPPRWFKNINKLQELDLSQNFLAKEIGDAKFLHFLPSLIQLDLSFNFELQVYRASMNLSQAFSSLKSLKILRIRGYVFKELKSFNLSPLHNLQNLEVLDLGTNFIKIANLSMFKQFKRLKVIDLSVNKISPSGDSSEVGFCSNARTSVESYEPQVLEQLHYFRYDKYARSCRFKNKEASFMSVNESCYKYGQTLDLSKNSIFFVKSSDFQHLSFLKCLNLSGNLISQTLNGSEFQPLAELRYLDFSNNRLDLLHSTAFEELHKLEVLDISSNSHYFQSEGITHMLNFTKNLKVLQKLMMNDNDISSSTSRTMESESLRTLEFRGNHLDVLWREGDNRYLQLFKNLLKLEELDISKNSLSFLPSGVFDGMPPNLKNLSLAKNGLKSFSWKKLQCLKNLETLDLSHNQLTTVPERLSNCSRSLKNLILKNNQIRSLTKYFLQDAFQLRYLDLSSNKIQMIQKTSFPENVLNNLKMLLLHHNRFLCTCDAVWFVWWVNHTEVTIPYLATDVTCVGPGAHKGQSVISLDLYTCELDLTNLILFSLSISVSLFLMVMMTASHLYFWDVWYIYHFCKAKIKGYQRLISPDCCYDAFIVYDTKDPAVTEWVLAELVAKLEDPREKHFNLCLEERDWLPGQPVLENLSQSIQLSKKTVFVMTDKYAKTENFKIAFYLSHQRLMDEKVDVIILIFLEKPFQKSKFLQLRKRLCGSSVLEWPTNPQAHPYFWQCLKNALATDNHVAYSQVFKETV
Nature of the test: In vitro human TLR7 binding reporter assay (HEK-Blue, NF-kB/AP1-inducible SEAP). Type of test: cell-based. The settings on record: read-out: TLR7 Agonist EC50. The protocol: (§1) In Vitro Human TLR7 and TLR8 Binding Reporter Assays
(§2) Logarithmically-growing human HEK-Blue cells co-expressing a TLR7 or TLR8 gene and a NF-kB/AP1-inducible SEAP (secreted embryonic alkaline phosphatase; Invivogen, San Diego, CA) reporter gene are added to individual wells of a 384-well plate (15,000 cells per 20 μL per well) and maintained for 24 h at 37° C., 5% CO2. Test compounds or DMSO are distributed to separate wells the next day using acoustic liquid handling technology (100 nL per well) and cells are subsequently incubated for 18 h at 37° C., 5% CO2. Cellular SEAP production is measured using an Envision plate reader instrument thirty minutes after adding freshly-made Quanti-Blue reagent (prepared by following manufacturer instructions; Invivogen, San Diego, CA) to the HEK-Blue TLR Nf-kB-SEAP cell reactions. All EC50 values (half-maximal effective concentration) are determined using proprietary data analysis software. Normalized EC50 value=absolute value determined by setting 100% Ymax using a reference standard RLU (relative light unit) values from cells treated with 50 μM of the reference standard.

Another test concerns the target T2, TLR8 (Homo sapiens, UniProt Q9NR97).
T2 construct: human HEK-Blue cells co-expressing a TLR7 or TLR8 gene
T2 sequence (Q9NR97 27-1041): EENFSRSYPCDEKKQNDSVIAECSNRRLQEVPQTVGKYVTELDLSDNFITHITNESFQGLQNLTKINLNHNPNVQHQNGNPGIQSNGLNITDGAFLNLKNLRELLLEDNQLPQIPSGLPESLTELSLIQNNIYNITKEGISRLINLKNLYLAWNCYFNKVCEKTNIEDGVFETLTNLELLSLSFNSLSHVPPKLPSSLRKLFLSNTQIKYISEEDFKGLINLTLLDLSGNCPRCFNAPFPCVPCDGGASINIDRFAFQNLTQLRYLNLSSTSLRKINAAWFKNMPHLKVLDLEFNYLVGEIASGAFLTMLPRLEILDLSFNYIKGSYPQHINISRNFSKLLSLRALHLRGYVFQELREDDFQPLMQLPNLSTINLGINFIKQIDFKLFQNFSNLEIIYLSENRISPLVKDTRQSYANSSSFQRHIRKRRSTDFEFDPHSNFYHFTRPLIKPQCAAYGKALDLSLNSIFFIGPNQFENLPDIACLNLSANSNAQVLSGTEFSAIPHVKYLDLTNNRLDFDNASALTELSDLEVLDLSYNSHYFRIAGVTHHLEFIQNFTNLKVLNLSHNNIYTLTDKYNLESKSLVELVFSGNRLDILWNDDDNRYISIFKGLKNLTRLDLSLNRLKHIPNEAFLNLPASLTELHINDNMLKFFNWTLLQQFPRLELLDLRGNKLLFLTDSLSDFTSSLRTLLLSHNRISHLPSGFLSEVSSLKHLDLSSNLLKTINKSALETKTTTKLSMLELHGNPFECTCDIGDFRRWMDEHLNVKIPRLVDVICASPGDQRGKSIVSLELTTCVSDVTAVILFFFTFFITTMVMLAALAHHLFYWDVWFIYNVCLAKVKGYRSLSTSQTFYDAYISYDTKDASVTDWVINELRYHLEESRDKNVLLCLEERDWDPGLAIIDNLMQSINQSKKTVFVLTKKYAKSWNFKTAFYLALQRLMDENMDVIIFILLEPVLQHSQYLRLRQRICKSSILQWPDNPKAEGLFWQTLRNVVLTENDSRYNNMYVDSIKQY
Nature of the test: In vitro human TLR8 binding reporter assay (HEK-Blue, NF-kB/AP1-inducible SEAP). Type of test: cell-based. The settings on record: read-out: TLR8 Agonist EC50. The procedure: as §1, §2

Like-named read-outs stand apart in the source and are kept apart here. Bounds are passed on as bounds.

On to `N#CC1(C(=O)NCCn2cc3c(n2)c(N)nc2cc(-c4cc[nH]n4)ccc23)CC1` [Example 182], for which the EC50 in the test with THP-1 cells (human) is 1.27 µM; on TLR7 (activity range class), above 100 µM; at TLR8 (activity range class) it was above 100 µM.
For the compound `CC[C@@H](O)Cn1ncc2c(N)nc3cc(-c4cc[nH]n4)ccc3c21` [Example 400], the half-maximal effective concentration (EC50) in the test with THP-1 cells (human cells) is 1.22 µM; at TLR7 (activity range), above 100 µM; at TLR8 (activity range) it was above 100 µM.
For `CC(=O)NC(C)Cn1cc2c(N)nc3cc(-c4ccn[nH]4)ccc3c2n1` (stereo not drawn) [Example 254], the concentration for a half-maximal effect (EC50) in the test with THP-1 cells (human) was 20.3 µM; at TLR7 (activity range class), above 100 µM; at TLR8 (activity range class) it was above 100 µM.
On to `CN(C)Cc1nc2c(N)nc3cc(-c4ccn[nH]4)ccc3c2o1` [Example 145, 2-[(dimethylamino)methyl]-7-(1H-pyrazol-5-yl)-[1,3]oxazolo[4,5-c]quinolin-4-amine], for which the EC50 in the test on THP-1 cells (human) was 2.74 µM; on TLR7 (activity range class), above 100 µM; on TLR8 (activity range class), above 100 µM.
`CC(C)(C(=O)NCC(F)F)n1cc2c(N)nc3cc(-c4cc[nH]n4)ccc3c2n1` [Example 514]: the EC50 in the test on THP-1 cells (human cells) is 1.81 µM; at TLR7 (activity range), above 100 µM; at TLR8 (activity range), above 100 µM.
In the case of `Nc1nc2cc(-c3cc[nH]n3)ccc2c2[nH]c(CNCCF)cc12` [Example 496], the EC50 with THP-1 cells (human cells) was 0.05 µM; on TLR7 (activity range), above 100 µM; at TLR8 (activity range), above 100 µM.
Turning to `Nc1nc2cc(-c3cc[nH]n3)ccc2c2cn(CCCOc3ccc(F)cc3)nc12` [Example 6], the values for the EC50 in the test with THP-1 cells (human), at TLR7 (activity range class) and on TLR8 (activity range class) were 0.56 µM, above 100 µM and above 100 µM, respectively.
Regarding `Nc1nc2cc(-c3cc[nH]n3)ccc2c2[nH]c(CN3CCCC3)cc12` [Example 476], the EC50 with THP-1 cells (human cells) was 0.51 µM; on TLR7 (activity range) it was above 100 µM; on TLR8 (activity range), above 100 µM.
Consider `Cc1nc(C(=O)NCCn2cc3c(n2)c(N)nc2cc(-n4cccn4)ccc23)co1` [Example 183], for which the EC50 in the test on THP-1 cells (human) is 0.11 µM; on TLR7 (activity range class), above 100 µM; at TLR8 (activity range class) it was 20 to 100 µM.
For the compound `N#C[C@H]1CCN(C(=O)Cn2cc3c(n2)c(N)nc2cc(-c4cc[nH]n4)ccc23)C1` [Example 540], the concentration giving a half-maximal response (EC50) in the test on THP-1 cells (human cells) is 3.13 µM; on TLR7 (activity range), above 100 µM; at TLR8 (activity range), above 100 µM.
Regarding `CNC(=O)Cn1cc2c(N)nc3cc(-n4cccn4)ccc3c2n1` [Example 554], the EC50 in the test on THP-1 cells (human cells) is 0.46 µM; on TLR7 (activity range), above 100 µM; at TLR8 (activity range), above 100 µM.
Take `COC1CCN(CCn2cc3c(N)nc4cc(-c5ccn[nH]5)ccc4c3n2)C1` (stereo not drawn) [Example 266]: the concentration giving a half-maximal response (EC50) was 2.62 µM in the test with THP-1 cells (human), above 100 µM at TLR7 (activity range class) and above 100 µM at TLR8 (activity range class).
For `Nc1nc2cc(-c3cccs3)ccc2c2cn(CCNC(=O)c3ccc(F)cn3)nc12` [Example 129], the EC50 in the test with THP-1 cells (human) was 0.7 µM; at TLR7 (activity range class), above 100 µM; at TLR8 (activity range class), above 100 µM.
As for `CC(C)NCCn1cc2c(n1)c(N)nc1cc(-c3cc[nH]n3)ccc12` [Example 109], the concentration for a half-maximal effect (EC50) in the test on THP-1 cells (human) is 1.78 µM; on TLR7 (activity range class), 20 to 100 µM; at TLR8 (activity range class) it was 20 to 100 µM.
In the case of `NCCn1cc2c(N)nc3cc(-c4cc[nH]n4)ccc3c2n1` [Example 149, 2-(2-aminoethyl)-7-(1H-pyrazol-3-yl)-2H-pyrazolo[4,3-c]quinolin-4-amine], the values for the concentration for a half-maximal effect (EC50) in the test on THP-1 cells (human), on TLR7 (activity range class) and on TLR8 (activity range class) were 0.38 µM, above 100 µM and above 100 µM, respectively.
With `CC(C)(C(=O)N1CC(F)(F)C1)n1cc2c(N)nc3cc(-c4cc[nH]n4)ccc3c2n1` [Example 523], the EC50 in the test with THP-1 cells (human cells) was 7.3 µM; at TLR7 (activity range), above 100 µM; at TLR8 (activity range), above 100 µM.
Consider `Nc1nc2cc(-c3ccn[nH]3)ccc2c2sc(CCNC(=O)c3ccccc3)nc12` [Example 135, N-(2-(4-amino-7-(1H-pyrazol-5-yl)thiazolo[4,5-c]quinolin-2-yl)ethyl) benzamide], for which the concentration giving a half-maximal response (EC50) was 0.98 µM in the test with THP-1 cells (human), above 100 µM at TLR7 (activity range class) and above 100 µM at TLR8 (activity range class).
For `Cc1nc(C(=O)NCCn2cc3c(n2)c(N)nc2cc(-c4cc[nH]n4)ccc23)ccc1C(F)(F)F` [Example 56], the EC50 in the test with THP-1 cells (human) is 0.31 µM; on TLR7 (activity range class) it was 20 to 100 µM; at TLR8 (activity range class), 1 to 20 µM.
Consider `CC(Cn1cc2c(N)nc3cc(-n4cccn4)ccc3c2n1)NC(=O)C(C)(C)F` (stereo not drawn) [Example 431], for which the concentration for a half-maximal effect (EC50) was 1.23 µM in the test with THP-1 cells (human cells), above 100 µM on TLR7 (activity range) and above 100 µM at TLR8 (activity range).
For the compound `Nc1nc2cc(-c3ccn[nH]3)ccc2c2nn(CCNC(=O)c3ccccn3)nc12` [Example 159], the EC50 with THP-1 cells (human) was 0.68 µM; on TLR7 (activity range class), above 100 µM; at TLR8 (activity range class) it was above 100 µM.
Take `COc1ccc(C(=O)NCCn2cc3c(n2)c(N)nc2cc(-c4cc[nH]n4)ccc23)cc1` [Example 40]: the half-maximal effective concentration (EC50) with THP-1 cells (human) is 0.78 µM; at TLR7 (activity range class), above 100 µM; on TLR8 (activity range class), above 100 µM.
